In ChEMBL document CHEMBL1150977, “A quantitative analysis of kinase inhibitor selectivity” (Nat Biotechnol, 2008):

How the values were obtained:
[1] = molecular target: T1, Serine/threonine-protein kinase RIO1 (Homo sapiens, UniProt Q9BRS2)
T1 sequence (Q9BRS2 whole entry): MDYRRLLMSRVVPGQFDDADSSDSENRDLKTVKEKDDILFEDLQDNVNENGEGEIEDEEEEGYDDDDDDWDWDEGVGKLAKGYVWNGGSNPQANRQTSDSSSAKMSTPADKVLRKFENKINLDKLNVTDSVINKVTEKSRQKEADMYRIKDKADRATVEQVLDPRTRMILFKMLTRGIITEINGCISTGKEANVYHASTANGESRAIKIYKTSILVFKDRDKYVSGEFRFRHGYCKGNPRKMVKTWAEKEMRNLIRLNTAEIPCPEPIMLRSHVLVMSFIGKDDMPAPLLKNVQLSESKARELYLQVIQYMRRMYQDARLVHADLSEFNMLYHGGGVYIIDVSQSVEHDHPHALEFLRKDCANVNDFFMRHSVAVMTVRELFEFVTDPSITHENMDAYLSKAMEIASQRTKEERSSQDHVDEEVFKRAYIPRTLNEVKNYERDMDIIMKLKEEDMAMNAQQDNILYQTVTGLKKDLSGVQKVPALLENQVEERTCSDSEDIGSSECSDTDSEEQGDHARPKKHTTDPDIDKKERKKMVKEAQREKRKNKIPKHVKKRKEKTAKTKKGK

[2] = molecular target: cAMP-dependent protein kinase catalytic subunit alpha (Homo sapiens, UniProt P17612)
[3] = molecular target: T2, Muscle, skeletal receptor tyrosine-protein kinase (Homo sapiens, UniProt O15146)
T2 sequence (O15146 whole entry): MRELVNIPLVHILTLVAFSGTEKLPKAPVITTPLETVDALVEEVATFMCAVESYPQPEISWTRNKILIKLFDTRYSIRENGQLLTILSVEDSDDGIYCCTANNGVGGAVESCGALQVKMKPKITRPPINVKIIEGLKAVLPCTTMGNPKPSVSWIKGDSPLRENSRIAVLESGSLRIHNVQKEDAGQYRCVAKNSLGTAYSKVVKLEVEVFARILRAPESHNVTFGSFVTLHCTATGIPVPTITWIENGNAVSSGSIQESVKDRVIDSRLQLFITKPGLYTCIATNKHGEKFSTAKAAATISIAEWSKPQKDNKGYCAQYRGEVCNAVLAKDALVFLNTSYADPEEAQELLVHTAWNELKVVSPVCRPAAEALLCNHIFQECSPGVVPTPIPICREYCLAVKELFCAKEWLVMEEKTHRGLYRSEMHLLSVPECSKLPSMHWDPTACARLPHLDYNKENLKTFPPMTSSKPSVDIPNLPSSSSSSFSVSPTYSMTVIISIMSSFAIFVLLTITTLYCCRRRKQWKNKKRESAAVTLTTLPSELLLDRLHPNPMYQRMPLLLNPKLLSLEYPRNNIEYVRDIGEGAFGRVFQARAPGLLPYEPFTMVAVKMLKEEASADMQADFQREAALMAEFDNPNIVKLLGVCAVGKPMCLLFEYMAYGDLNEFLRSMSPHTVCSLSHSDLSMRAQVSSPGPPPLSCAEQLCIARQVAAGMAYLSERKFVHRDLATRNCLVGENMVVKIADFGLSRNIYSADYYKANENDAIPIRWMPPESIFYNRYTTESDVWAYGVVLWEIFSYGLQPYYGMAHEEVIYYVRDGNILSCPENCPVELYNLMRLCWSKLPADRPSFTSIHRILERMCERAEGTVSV

[4] = molecular target: LIM domain kinase 1 (Homo sapiens, UniProt P53667)
[5] = molecular target: Hepatocyte growth factor receptor (Homo sapiens, UniProt P08581)
[6] = molecular target: Activin receptor type-1-like (Homo sapiens, UniProt P37023)
[7] = molecular target: T3, Serine/threonine-protein kinase 36 (Homo sapiens, UniProt Q9NRP7)
T3 sequence (Q9NRP7 whole entry): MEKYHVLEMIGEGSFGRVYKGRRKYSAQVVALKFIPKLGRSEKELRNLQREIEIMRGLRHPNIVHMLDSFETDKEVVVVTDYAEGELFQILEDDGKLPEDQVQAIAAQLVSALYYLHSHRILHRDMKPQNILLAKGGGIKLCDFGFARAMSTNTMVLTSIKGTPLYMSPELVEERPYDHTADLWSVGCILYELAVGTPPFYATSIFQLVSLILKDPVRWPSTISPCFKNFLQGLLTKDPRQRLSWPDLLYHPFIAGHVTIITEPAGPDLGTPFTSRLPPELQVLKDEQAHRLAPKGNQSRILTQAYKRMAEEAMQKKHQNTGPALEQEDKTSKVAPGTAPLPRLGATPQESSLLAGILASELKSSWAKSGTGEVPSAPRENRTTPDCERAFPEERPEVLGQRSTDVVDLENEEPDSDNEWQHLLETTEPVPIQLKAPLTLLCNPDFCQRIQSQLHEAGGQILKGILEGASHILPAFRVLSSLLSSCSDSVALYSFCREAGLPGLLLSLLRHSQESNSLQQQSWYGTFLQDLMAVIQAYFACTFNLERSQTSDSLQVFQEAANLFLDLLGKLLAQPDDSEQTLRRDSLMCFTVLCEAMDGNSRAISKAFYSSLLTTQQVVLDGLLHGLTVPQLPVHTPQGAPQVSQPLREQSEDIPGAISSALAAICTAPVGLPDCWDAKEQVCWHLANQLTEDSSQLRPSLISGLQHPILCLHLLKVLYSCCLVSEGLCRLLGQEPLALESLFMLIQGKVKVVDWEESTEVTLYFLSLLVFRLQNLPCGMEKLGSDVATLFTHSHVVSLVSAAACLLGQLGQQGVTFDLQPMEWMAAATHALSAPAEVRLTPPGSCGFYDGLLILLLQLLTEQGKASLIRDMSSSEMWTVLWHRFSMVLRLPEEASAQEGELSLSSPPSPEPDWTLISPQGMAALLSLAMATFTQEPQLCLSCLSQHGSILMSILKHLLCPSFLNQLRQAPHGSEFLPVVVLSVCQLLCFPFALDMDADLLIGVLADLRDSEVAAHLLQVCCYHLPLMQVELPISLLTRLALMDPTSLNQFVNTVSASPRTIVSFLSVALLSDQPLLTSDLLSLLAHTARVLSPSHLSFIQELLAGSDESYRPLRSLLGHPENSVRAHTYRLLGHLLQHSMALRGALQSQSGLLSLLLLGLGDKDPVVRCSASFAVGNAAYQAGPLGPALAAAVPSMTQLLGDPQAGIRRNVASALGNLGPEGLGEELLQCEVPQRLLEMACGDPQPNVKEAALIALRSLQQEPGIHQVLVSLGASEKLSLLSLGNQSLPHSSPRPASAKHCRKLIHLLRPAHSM

Measured: Kd

CCOc1cc2ncc(C#N)c(Nc3ccc(F)c(Cl)c3)c2cc1NC(=O)/C=C/CN(C)C [PELITINIB]
6.2 µM: [5]
not listed: [7]
> 10 µM: all other assays above

COCC(=O)NC/C=C/c1ccc2ncnc(Nc3ccc(Oc4ccc(C)nc4)c(C)c3)c2c1 [CP-724714]
> 10 µM: all assays above

NC(=O)c1ccc(-c2nc(-c3ccc4c(c3)OCO4)c(-c3ccccn3)[nH]2)cc1 [SB-431542]
> 10 µM: all assays above

Nc1nc(Nc2ccc(S(N)(=O)=O)cc2)nn1C(=O)c1c(F)cccc1F [JNJ-7706621]
> 10 µM: [3] | [7]

Oc1ccc(-c2nc(-c3ccncc3)c(-c3ccc(F)cc3)[nH]2)cc1 [SB-202190]
0.79 µM: [7]
not listed: [2]
> 10 µM: all other assays above

CCN1CCN(Cc2ccc(NC(=O)Nc3ccc(Oc4cc(NC)ncn4)cc3)cc2C(F)(F)F)CC1 [AST-487]
> 10 µM: [4]
